For this test, the system named is ARPE-19 cells. The test is described as follows: Intracellular uptake of FITC labeled TAT and PHHP 1 peptides in ARPE-19 cells (fluorometry). The class given is cell-based, human. The note with it: 10 and 5 μM. The method, then: FIG. 9 are graphs of quantitation of in vitro cell uptake study of FITC labeled PHIP (P 1) and TAT peptides in ARPE-19 cells. Cells were grown to a 10,000 well density in 96 well fluorescent imaging plates with a transparent bottom. The ARPE-19 cells required an additional 48 hrs, to reach this cell density. Cells were incubated with 200 μl of 10 and 5 μM/ml FITC labeled PHHP (P 1) and TAT peptides and uptake was continued for 1 hour at 37° C. Following uptake; cells were washed three times with acidic PBS (pH 5.0) and normal PBS (pH 7.4) at 37° C. Cells were lysed using 0.1 M NaOH and quantified using a fluorometry method. Panel A illustrates uptake of peptides by ARPE-19 cells and absolute amount, and panel B illustrates the percentage uptake of peptides at different concentrations.
The cell uptake study of FITC labeled PHHP peptides in an ARPE-19 cell line was studied using fluorometry. ARPE —19 cells were grown in a DMEM/F12 medium. A cell density of 10,000 cells was plated into a 96 well plate for each cell lines, 48 hours before the start of the uptake study. […] All the samples were brought to room temperature and fluorescence spectra were recorded at an excitation wavelength of 493 nm and emission wavelength of 520 nm. The percentage uptake and absolute uptake were determined for each peptide at different concentrations and plotted as a bar graph for comparative analyses in FIG. 3.
Intracellular uptake of TAT and PHHP 1 peptides in ARPE-19 cells. […] All the samples were then brought to room temperature and fluorescence intensities were recorded at an excitation wavelength of 493 nm and emission wavelength of 520 nm.
Percentage uptake and statistical analyses at different concentrations were compared. […] The percentage uptake of the PHHP 1 peptide was determined to be ˜15-17, whereas ˜3-4% for TAT peptide. […] Furthermore, these proteins in their PHHP 1 tagged and un-tagged forms were evaluated for intracellular uptake properties in ARPE-19, A549, and hCET cells lines and for transcellular migration behavior across bovine and rabbit eyes cornea following topical dosing (FIG. 9).

For “PHHP 1: positive, helical, hydrophobic peptide variant, sequence WWFWIWFWWGPGRRKRRKRRR [SEQ ID 1] (Sequence is synthesized)”, the “fold improvement in the uptake relative to the TAT peptide” value (1 hour uptake at 37° C.) was 4-7 fold. Besides, where the note is “FITC labeled peptide, 1 hour”, the “uptake behavior (percentage uptake versus concentration)” value is on record as “concentration dependence”. For the same substance, under “FITC labeled peptide, 1 hour uptake at 37° C.”, the percentage uptake is recorded as 15-17%.

Values taken from patent US20240092837A1, “Novel Peptide Carrier Compositions” (The Regents of the University of Colorado, A Body Corporate, priority 2021, published 2024).
